According to patent publication US5869484A, “Phenylcarbamate derivatives suitable to the use as anticholinesterase substances” (priority 1994, dated 1999):
pIC50: −log10 of the molar value. Where two headings read alike, the source gives them in different places.

Experiments:
[1] = target: T1, AChE E. eel (Electrophorus electricus, UniProt O42275); assay: biochemical; set-up: species or system Electric Eel
T1 construct: purchased Sigma Chemical
Procedure: (§1) The incubation time between enzyme and product used for the determinations has been 10'.
(§2) The acetylcholinesterase from human erythrocytes (AChE hRBC), the acetylcholinesterase from Electric Eel (AChE E.eel) and the butyrylcholinesterase from human serum (BuChE hserum) coming from the Sigma Chemical have been used.

[2] = target: T2, BuChE hserum (Homo sapiens, UniProt P06276); assay: Inhibition of butyrylcholinesterase from human serum (Ellman method); format: biochemical
T2 construct: purchased Sigma Chemical; host or cells: human serum
T2 sequence (P06276 29-602): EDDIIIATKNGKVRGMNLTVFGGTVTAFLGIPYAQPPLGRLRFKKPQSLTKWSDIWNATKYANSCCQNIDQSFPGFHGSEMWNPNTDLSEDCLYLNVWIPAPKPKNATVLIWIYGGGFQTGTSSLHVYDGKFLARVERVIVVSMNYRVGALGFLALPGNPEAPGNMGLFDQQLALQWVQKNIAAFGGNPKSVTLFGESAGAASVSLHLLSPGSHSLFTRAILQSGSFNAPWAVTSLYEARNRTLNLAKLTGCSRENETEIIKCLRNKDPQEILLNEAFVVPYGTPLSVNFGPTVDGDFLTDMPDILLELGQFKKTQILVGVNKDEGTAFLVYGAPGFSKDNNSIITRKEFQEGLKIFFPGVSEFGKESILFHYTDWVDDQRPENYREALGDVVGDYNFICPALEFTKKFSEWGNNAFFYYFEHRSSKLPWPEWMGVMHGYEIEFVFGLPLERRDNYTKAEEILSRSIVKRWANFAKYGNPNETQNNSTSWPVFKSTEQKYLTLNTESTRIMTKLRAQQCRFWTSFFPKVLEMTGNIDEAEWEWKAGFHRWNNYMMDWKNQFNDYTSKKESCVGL
Procedure: as §1, §2

[3] = Acute toxicity (single administration) in mouse; settings: in vivo
[4] = Acute toxicity (single administration) in rat; settings: in vivo
[5] = test system: acetylcholinesterase; settings: prior art; cited from earlier work
[6] = prior art; cited from earlier work
[7] = prior art; cited from earlier work; remark: listed apart in the source
[8] = target: T3, AChE hRBC (Homo sapiens, UniProt P22303); assay: biochemical
T3 construct: purchased Sigma Chemical; host or cells: human erythrocytes
T3 sequence (P22303 32-617 isoform P22303-2 limits assumed): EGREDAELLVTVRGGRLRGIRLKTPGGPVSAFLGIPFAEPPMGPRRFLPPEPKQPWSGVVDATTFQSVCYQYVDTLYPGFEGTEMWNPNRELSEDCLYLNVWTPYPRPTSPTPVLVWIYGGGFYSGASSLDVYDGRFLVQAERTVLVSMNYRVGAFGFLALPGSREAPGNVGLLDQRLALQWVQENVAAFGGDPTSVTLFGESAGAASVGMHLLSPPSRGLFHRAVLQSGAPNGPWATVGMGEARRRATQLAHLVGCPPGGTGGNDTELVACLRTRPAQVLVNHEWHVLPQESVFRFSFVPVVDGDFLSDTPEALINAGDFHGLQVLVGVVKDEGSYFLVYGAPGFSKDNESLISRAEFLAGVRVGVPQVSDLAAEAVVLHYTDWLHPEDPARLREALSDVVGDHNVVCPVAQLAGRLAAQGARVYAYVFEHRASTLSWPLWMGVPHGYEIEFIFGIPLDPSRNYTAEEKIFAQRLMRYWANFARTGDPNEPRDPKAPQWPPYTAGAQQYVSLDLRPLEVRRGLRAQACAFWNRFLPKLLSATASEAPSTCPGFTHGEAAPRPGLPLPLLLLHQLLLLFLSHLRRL
Procedure: as §1, §2

[9] = test system: amnesic failure induced by scopolamine; assay: Passive Avoidance test, scopolamine-induced amnesic failure, rats; format: in vivo; settings: 0.5-1-2-4 mg/kg per os
[10] = test system: mental pathologies / Alzheimer's disease; settings: prior art, clinical studies; cited from earlier work
[11] = iv, read-out: Toxicity tests (LD50), mouse iv
[12] = po, os, read-out: Toxicity tests (LD50), mouse os
[13] = po, os, read-out: Toxicity tests (LD50), rat os

T1 sequence (O42275 24-633): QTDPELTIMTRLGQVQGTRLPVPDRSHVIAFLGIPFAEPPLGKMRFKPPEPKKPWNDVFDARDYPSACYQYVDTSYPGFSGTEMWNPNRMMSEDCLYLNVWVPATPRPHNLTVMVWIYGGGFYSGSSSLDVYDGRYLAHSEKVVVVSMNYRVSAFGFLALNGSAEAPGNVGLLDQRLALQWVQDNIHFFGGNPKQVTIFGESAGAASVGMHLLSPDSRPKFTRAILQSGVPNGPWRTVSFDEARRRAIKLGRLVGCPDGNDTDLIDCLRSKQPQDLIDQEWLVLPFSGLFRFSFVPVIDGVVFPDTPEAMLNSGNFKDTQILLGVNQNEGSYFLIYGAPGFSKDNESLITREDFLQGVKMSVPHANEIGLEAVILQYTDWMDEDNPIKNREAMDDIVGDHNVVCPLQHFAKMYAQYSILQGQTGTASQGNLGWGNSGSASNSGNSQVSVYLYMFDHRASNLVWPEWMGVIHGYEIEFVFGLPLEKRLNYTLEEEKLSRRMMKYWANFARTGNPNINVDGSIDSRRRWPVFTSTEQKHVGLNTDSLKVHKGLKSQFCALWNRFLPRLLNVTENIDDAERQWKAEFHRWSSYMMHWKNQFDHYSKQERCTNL

Row | Structure (SMILES) | pIC50 ([1]; incubation time 10', read-out: Inhibition of the cholinesterase (IC50 M), AChE E. eel) | pIC50 [2] | LD50 [3, 11] [mg/kg] | LD50 [3, 12] [mg/kg] | LD50 ([4]; iv, read-out: Toxicity tests (LD50), rat iv) [mg/kg] | LD50 [4, 13] [mg/kg] | inhibition of acetylcholinesterase [5] | pharmacokinetic characteristics [6] | side-effects [7] | pIC50 [1] | pIC50 [8] | potency compared with eptastigmine, physostigmine or tacrine ([8]; comparison from Table 1) | reduction of amnesic failure induced by scopolamine in the Passive Avoidance test [9] | potency compared with eptastigmine, physostigmine or tacrine [8] | efficacy in patients [10]
1 | CCCCCCCNC(=O)Oc1ccc2c(c1)[C@]1(C)CCN(C)[C@@H]1N2C [Eptastigmine, heptylcarbamic ester of the eseroline, reference compound] | 7.30 | 6.85 | 7 | 25 | 5 | 23 | less powerful | better pharmacokinetic characteristics | reduced side-effects | – | – | – | – | – | –
2 | CN(C)CC(C)(C)c1cccc(OC(=O)NCCCCCCCCN2CCOCC2)c1 [Ex. 1, 3-[(1-dimethylamino-2-methyl)prop-2-yl]-N-[8-(4-morpholinyl)octyl]phenylcarbamate] | – | 7.80 | 15 | 67 | – | 33 | – | – | – | 6.33 | 6.80 | equal or even superior to that of eptastigmine or of physostigmine | able to reduce the amnesic failure induced by scopolamine | – | –
3 | CNC(=O)Oc1ccc2c(c1)[C@]1(C)CCN(C)[C@@H]1N2C [Physostigmine, reference compound] | – | – | 0.6 | 3.4 | – | – | powerful natural inhibitor of the acetylcholinesterase | unfavourable pharmacokinetic characteristics | – | – | – | – | – | superior to that of tacrine | beneficial results in the treatment of the patients affected by mental pathologies
